In patent US11760744B2, “Fused ring compounds” (Genentech, Inc., priority 2018, dated 2023) one finds half-life, EC50 and IC50 data, which are given here for 18 compounds.

Data set [1] can be described thus: Whole blood stability assay. As to conditions: fresh whole blood, drug 1 μM, 37° C., 180 minutes incubation. It is filed as in vitro ADME. As to the method: Whole Blood Stability Assay A whole blood stability assay was performed using fresh blood with a drug final concentration of 1 μM. The drug-blood mixtures were incubated at 37° C. for 180 minutes.
For data set [2], the target named is T1, K-Ras G12C (Homo sapiens, UniProt P01116, G12C). As to the kind of experiment: Western blot assay for in cell alkylation of K-Ras G12C (HCC1171 cells). It is filed as cell-based. More on the design: endogenous in cells; host or cells: HCC1171. As to conditions: 18 hours at 37° C., 7 point dose response. The procedure, abridged:
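HCC1171 cells exposed to compounds for 18 h at 37° C, lysed, and analysed by SDS-PAGE/western blot with anti-K-Ras antibody and fluorescent secondary. Alkylated K-Ras separated by band shift; % alkylation = FI(alkylated)/(FI(alkylated)+FI(unalkylated))×100, IC50 from 7-point dose response.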
Target sequence in this assay (P01116 1-188 isoform P01116-2 G12C): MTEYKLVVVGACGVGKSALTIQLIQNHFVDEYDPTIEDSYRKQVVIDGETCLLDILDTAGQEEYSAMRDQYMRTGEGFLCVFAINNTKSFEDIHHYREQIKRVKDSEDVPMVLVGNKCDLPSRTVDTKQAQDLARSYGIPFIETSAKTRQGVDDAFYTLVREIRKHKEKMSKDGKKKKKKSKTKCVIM

Data set [3] deals with T1, K-Ras G12C. As to the kind of experiment: K-Ras G12C, SOS1, Raf RBD HTRF assay for inhibition of GTP exchange. It is filed as biochemical. Also noted: K-Ras G12C (residues 2-188) and SOS1 (residues 564-1049) had N-terminal 6-His; made in house; host or cells: E. coli. The following applies: 18 hours preincubation with K-Ras G12C at room temperature; SOS1-mediated GTP exchange. The procedure, abridged:
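After 18 h at room temperature with compound, SOS1 (1.25 nM final) started exchange to GTP (150 μM final). C-Raf RBD, Tb-anti-FLAG and D2-anti-his (50, 1 and 12.5 nM) were then added. The 665/615 nm HTRF ratio was read after 2 h; buffer was HEPES/NaCl, 1 mM MgCl2, BSA, Tween-20 and DTT.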
Target sequence in this assay (P01116 2-188 isoform P01116-2 G12C): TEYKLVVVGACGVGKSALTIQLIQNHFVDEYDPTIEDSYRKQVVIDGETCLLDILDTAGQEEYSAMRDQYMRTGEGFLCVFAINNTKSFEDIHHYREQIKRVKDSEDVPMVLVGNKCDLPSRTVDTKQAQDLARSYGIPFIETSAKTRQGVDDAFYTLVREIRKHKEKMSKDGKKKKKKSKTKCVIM

Data set [4] concerns the target T2, K-Ras G12C mutant protein (Homo sapiens, UniProt P01116, G12C).
T2 construct: K-Ras G12C (residues 2-188) and SOS1 (residues 564-1049) had N-terminal 6-His; made in house; host or cells: E. coli
As to the kind of experiment: K-Ras G12C HTRF assay. It is filed as biochemical. As to conditions: Table 1; unit or assay not given; several values in one cell. As to the method:
In the above definition of R^2, the electrophilic moiety that is capable of forming a covalent bond with a cysteine residue is determined via K-Ras G12C-alkylation studies and Homogeneous Time Resolved Fluorescence (HTRF) assays. The G12C mutation of the K-Ras gene is a change in amino acid from glycine to cysteine at the 12th amino acid. The compounds according to the present disclosure were discovered using the HTRF assay and the K-Ras G12C-alkylation assay, as further detailed elsewhere herein below, and then NMR spectroscopy was later used to validate the specificity with which the molecule was attaching to G12C.

T2 sequence (P01116 2-188 isoform P01116-2 G12C): as above

Take `C=CC(=O)N1CCN(c2nc(OC[C@@H]3CCCN3C)nc3c2C[C@@H](C)[C@H](c2c(F)c(N)cc(C)c2C(F)(F)F)C3)[C@@H](C)C1` (single isomer, unassigned) [Example 12b]: the half-life at 1 μM in data set [1] was > 9 h. Further, at K-Ras G12C [2], a half-maximal effect (EC50) was put at 0.0033 µM. Besides, the IC50 on K-Ras G12C [3] was < 0.01 µM.

Consider `C=CC(=O)N1CCN(c2nc(OC[C@@H]3CCCN3C)nc3c2C[C@@H](C)[C@H](c2nc(N)cc(C)c2C(F)(F)F)C3)CC1` (single isomer, unassigned) [Example 20a], for which the half-life at 1 μM in data set [1] stood at 3.83 h. This compound also came in with a concentration for a half-maximal effect (EC50) at K-Ras G12C [2] of 0.014 µM. Moreover, the IC50 at K-Ras G12C [3] is < 0.01 µM.

Take `C=CC(=O)N1CCN(c2nc(OC[C@@H]3CCCN3C)nc3c2C[C@@H](C)[C@H](c2nc(N)cc(C)c2C(F)(F)F)C3)[C@@H](C)C1` (single isomer, unassigned) [Example 21b]: the half-life at 1 μM in data set [1] is > 9 h. For the same compound, the EC50 on K-Ras G12C [2] amounted to 0.006 µM. Further, on K-Ras G12C [3], the 50% inhibitory concentration (IC50) is < 0.01 µM.

Consider `C=CC(=O)N1CCN(c2nc(OC[C@@H]3CCCN3C)nc3c2C[C@@H](C)[C@H](c2cc(O)cc4ccccc24)C3)[C@@H](C)C1` (single isomer, unassigned) [Example 22b], for which the half-life at 1 μM in data set [1] is > 9 h. The compound also gave a half-maximal effective concentration (EC50) on K-Ras G12C [2] of 0.0061 µM. The concentration for half-maximal inhibition (IC50) at K-Ras G12C [3] was < 0.01 µM.

`C=CC(=O)N1CCN(c2nc(OC[C@@H]3CCCN3C)nc3c2C[C@@H](C)[C@H](c2c(C(F)(F)F)ccc(N)c2F)C3)[C@@H](C)C1` (single isomer, unassigned) [Example 23b]: in data set [1], the half-life at 1 μM was found to be 4.67 h. The compound also had a half-maximal effective concentration (EC50) at K-Ras G12C [2] of 0.0066 µM. In addition, the half-inhibitory concentration (IC50) against K-Ras G12C [3] was < 0.01 µM.

In data set [1], `C=CC(=O)N1CCN(c2nc(OC[C@@H]3CCCN3C)nc3c2CC[C@H](c2cc(O)cc4ccccc24)C3)[C@@H](C)C1` (single isomer, unassigned) [Example 28b] returned a half-life at 1 μM of 7 h. Besides, it took 0.023 µM to reach a half-maximal effect at K-Ras G12C [2] (EC50). On K-Ras G12C [3], the IC50 was < 0.01 µM.

Turning to `C=CC(=O)N1CCN(c2nc(OC[C@@H]3C[C@@H](F)CN3C)nc3c2CC[C@H](c2cc(O)cc4ccccc24)C3)[C@@H](C)C1` (single isomer, unassigned) [Example 31a], in data set [1], the half-life at 1 μM is 6.83 h. The compound further yielded a concentration giving a half-maximal response (EC50) on K-Ras G12C [2] of 0.013 µM. In addition, the concentration for half-maximal inhibition (IC50) at K-Ras G12C [3] was < 0.01 µM.

As to `C=C(F)C(=O)N1CCN(c2nc(OC[C@@H]3CCCN3C)nc3c2C[C@@H](C)[C@H](c2c(F)c(N)cc(C)c2C(F)(F)F)C3)C[C@@H]1CC#N` (single isomer, unassigned) [Example 34c], the half-life at 1 μM in data set [1] was > 9 h. Also, the concentration giving a half-maximal response (EC50) at K-Ras G12C [2] turned out to be 0.014 µM. In addition, the IC50 against K-Ras G12C [3] is < 0.01 µM.

Take `C=C(F)C(=O)N1CCN(c2nc(OC[C@@H]3CCCN3C)nc3c2CC(C)C(c2c(F)c(N)cc(C)c2C(F)(F)F)C3)CC1CC#N` (single isomer, unassigned) [Example 34d]: in data set [1], the half-life at 1 μM was > 9 h. Further, on K-Ras G12C [2], a half-maximal effect (EC50) was put at 0.0067 µM. For the same compound, on K-Ras G12C [3], the concentration for half-maximal inhibition (IC50) is < 0.01 µM.

Take `C=CC(=O)N1CCN(c2nc(OC[C@@H]3CCCN3C)nc3c2C[C@@H](C)[C@H](c2cccc4c2CCC4)C3)C[C@H]1CC#N` (single isomer, unassigned) [Example 35b]: the half-life at 1 μM in data set [1] came out at 1.52 h. Also, the EC50 on K-Ras G12C [2] came out at 0.017 µM. Besides, half-maximal inhibition against K-Ras G12C [3] (IC50) required 0.011 µM.

As for `C=CC(=O)N1CCN(c2nc(OC[C@@H]3CCCN3C)nc3c2C[C@@H](C)[C@H](c2cccc4c2CCC4)C3)C[C@@H]1CC#N` (single isomer, unassigned) [Example 35d], in data set [1], the half-life at 1 μM was 1.45 h. The compound further returned a 50% effective concentration (EC50) on K-Ras G12C [2] of 0.00098 µM. Besides, on K-Ras G12C [3], the IC50 is < 0.01 µM.

With `C=CC(=O)N1CCN(c2nc(OC[C@@H]3C[C@@H](F)CN3C)nc3c2C[C@@H](C)[C@H](c2c(F)c(N)cc(C)c2C(F)(F)F)C3)[C@@H](C)C1` (single isomer, unassigned) [Example 36b], the half-life at 1 μM in data set [1] is > 9 h. In addition, a half-maximal effect on K-Ras G12C [2] (EC50) was put at 0.006 µM. Moreover, the half-inhibitory concentration (IC50) at K-Ras G12C [3] is < 0.01 µM.

`C=CC(=O)N1CCN(c2nc(OC[C@@H]3C[C@@H](F)CN3C)nc3c2C[C@@H](CC)[C@H](c2c(F)c(N)cc(C)c2C(F)(F)F)C3)[C@@H](C)C1` (single isomer, unassigned) [Example 37a]: in data set [1], the half-life at 1 μM is > 9 h. In addition, the EC50 at K-Ras G12C [2] was 0.0045 µM. At K-Ras G12C [3], the IC50 was < 0.01 µM.

For the compound `C=C(F)C(=O)N1CCN(c2nc(OC[C@@H]3C[C@@H](F)CN3C)nc3c2C[C@@H](C)[C@H](c2c(F)c(N)cc(C)c2C(F)(F)F)C3)C[C@@H]1CC#N` (single isomer, unassigned) [Example 38b], the half-life at 1 μM in data set [1] was > 9 h. The compound further registered an EC50 on K-Ras G12C [2] of 0.0032 µM. For the same compound, on K-Ras G12C [3], the concentration for half-maximal inhibition (IC50) is < 0.01 µM.

In data set [1], `C=C(F)C(=O)N1CCN(c2nc(OC[C@@H]3C[C@@H](F)CN3C)nc3c2C[C@@H](C)[C@H](c2c(F)c(N)cc(C)c2C(F)(F)F)C3)C[C@H]1CC#N` (single isomer, unassigned) [Example 38c] gave a half-life at 1 μM of 2.33 h. The half-maximal effective concentration (EC50) on K-Ras G12C [2] was 0.024 µM. The compound also yielded an IC50 at K-Ras G12C [3] of 0.015 µM.

For the compound `C=CC(=O)N1CCN(c2nc(OC[C@@H]3CCCN3C)nc3c2C[C@@H](C)[C@H](c2nc(N)ccc2C(F)(F)F)C3)[C@@H](C)C1` (single isomer, unassigned) [Example 41b], in data set [1], the half-life at 1 μM came to 3.33 h. On K-Ras G12C [2], this compound yielded a 50% effective concentration (EC50) of 0.0081 µM. The half-inhibitory concentration (IC50) on K-Ras G12C [3] was < 0.01 µM.

In turn, `CN(C)C/C=C/C(=O)Nc1cc2c(Nc3ccc(F)c(Cl)c3)ncnc2cc1O[C@H]1CCOC1` [Afatinib, reference compound] showed a half-life at 1 μM in data set [1] of 1.25 h.

As for `C=CC(=O)N1CCN(c2nc(OCC3CCCN3C)nc3c2CCC(c2cc(O)cc4ccccc24)C3)C(CC#N)C1` (stereo not shown) [Example 60, 2-(4-acryloyl-1-(7-(3-hydroxynaphthalen-1-yl)-2-((1-methylpyrrolidin-2-yl)methoxy)-5,6,7,8-tetrahydroquinazolin-4-yl)piperazin-2-yl)acetonitrile], the IC50 (in data set [4]; against K-Ras G12C [3]) was 0.026 µM in each case. Besides, at K-Ras G12C [2], the midpoint of the response, the EC50, lay at 1.3 µM.
